Test results reported in ChEMBL document CHEMBL1131904, “Peptidic immunosuppressants from the fungus Trichoderma polysporum” (Bioorg Med Chem Lett, 1999).
Numbered stars: 1 amine (or outer) side, 2 acyl side, 3 side chain; on linkers, the order of the positions; unused ones are H or OH. Square brackets hold non-standard residues; d marks the D form. Peptide text beside a SMILES is read from it. * marks the point of attachment. ξ: configuration not given here. X1 = CCC(=O)C[C@@H](O)C[C@@H](C)C[C@H](N[*:1])C(=O)[*:2]; Alaψ(CH2NMeCH2CH2OH) = C[C@@H](CN(C)CCO)N*; Decanoyl(2R-Me) = CCCCCCCC[C@@H](C)C(=O)*; X2 = CCCCCCC[C@H](O)[C@H](C)C(=O)*; Aib = CC(C)(N)C(=O)O; ξA = CC(N)C(=O)O

Key:
[1] = organism: Mus musculus; assay: Inhibitory activity against the proliferation of lymphocytes in mouse allogenic mixed lymphocyte reaction (MLR).; type: functional, organism-based
[2] = organism: Mus musculus; assay: Inhibitory activity against the production of interleukin 4 (IL-4); type: functional, organism-based

IC50 [2] [nM] | SMILES | IC50 [1] [nM]
> 1000 | CCCCCCCC[C@@H](C)C(=O)N1CCC[C@H]1C(=O)N[C@@H](C[C@H](C)C[C@H](O)CC(=O)CC)C(=O)N[C@@H](C)C(=O)NC(C)(C)C(=O)NC(C)(C)C(=O)N[C@H](C(=O)N[C@@H](C)C(=O)NC(C)(C)C(=O)NC(C)(C)C(=O)N[C@@H](C)CN(C)CCO)[C@@H](C)CC ({Decanoyl(2R-Me)}-P[X1]A[Aib][Aib]IA[Aib][Aib]-{Alaψ(CH2NMeCH2CH2OH)}) | 5.2
> 1000 | CCCCCCCC[C@@H](C)C(=O)N1CCC[C@H]1C(=O)N[C@@H](C[C@H](C)C[C@H](O)CC(=O)CC)C(=O)N[C@@H](C)C(=O)NC(C)(C)C(=O)NC(C)(C)C(=O)N[C@H](C(=O)N[C@@H](C)C(=O)NC(C)(C)C(=O)NC(C)C(=O)N[C@@H](C)CN(C)CCO)[C@@H](C)CC (stereo partly drawn) ({Decanoyl(2R-Me)}-P[X1]A[Aib][Aib]IA[Aib][ξA]-{Alaψ(CH2NMeCH2CH2OH)}) | 20.5
> 1000 | CCCCCCC[C@H](O)[C@H](C)C(=O)N1CCC[C@H]1C(=O)N[C@@H](C[C@H](C)C[C@H](O)CC(=O)CC)C(=O)N[C@@H](C)C(=O)NC(C)(C)C(=O)NC(C)(C)C(=O)N[C@H](C(=O)N[C@@H](C)C(=O)NC(C)(C)C(=O)NC(C)(C)C(=O)N[C@@H](C)CN(C)CCO)[C@@H](C)CC (X2-P[X1]A[Aib][Aib]IA[Aib][Aib]-{Alaψ(CH2NMeCH2CH2OH)}) | 294
> 1000 | CCCCCCCC[C@@H](C)C(=O)N1CCC[C@H]1C(=O)N[C@@H](C[C@H](C)C[C@H](O)CC(=O)CC)C(=O)N[C@@H](C)C(=O)NC(C)(C)C(=O)NC(C)(C)C(=O)N[C@H](C(=O)N[C@@H](C)C(=O)NC(C)(C)C(=O)NC(C)C(=O)N[C@@H](C)CN(C)CCO)C(C)C (stereo partly drawn) ({Decanoyl(2R-Me)}-P[X1]A[Aib][Aib]VA[Aib][ξA]-{Alaψ(CH2NMeCH2CH2OH)}) | 60.4

SMILES | IC50 [2] [nM] | IC50 [1] [nM]
CCCCCCCC[C@@H](C)C(=O)N1CCC[C@H]1C(=O)N[C@@H](C[C@H](C)C[C@H](O)CC(=O)CC)C(=O)N[C@@H](C)C(=O)NC(C)(C)C(=O)NC(C)(C)C(=O)N[C@H](C(=O)N[C@@H](C)C(=O)NC(C)(C)C(=O)NC(C)(C)C(=O)N[C@@H](C)CN(C)CCO)C(C)C ({Decanoyl(2R-Me)}-P[X1]A[Aib][Aib]VA[Aib][Aib]-{Alaψ(CH2NMeCH2CH2OH)}) | > 1000 | 10.7
